System: adenylate cyclase
Assay: cAMP assay of cryopreserved AD293 cells, forskolin stimulation
Format: cell-based, human
Excerpt: As a control, rise in intracellular cAMP concentrations was also separately monitored when the ubiquitously expressed adenylate cyclase activity was challenged with its respective agonist forskolin. In the AD293 cell line only the adenylate cyclase activity was monitored.
As the DiscoveRx assay systems are designed to monitor intracellular cAMP concentrations the assay medium is supplemented with the general phosphodiesterase inhibitor isobutylmethylxanthine (IBMX) at a final concentration of 1 mM.
Forskolin assay—Forskolin (Sigma F6886-10 mg) was dissolved in DMSO to a stock concentration of 10 mM. This was then serially diluted using half-log dilutions to generate a final forskolin concentration range in the assay medium ranging from 316 μM-3.16 nM.
DiscoveRx HITHUNTER™ cAMP II assay—This was performed according to the manufacturer's instructions and briefly involved the following. On resurrection from storage at −140° C., cells frozen on cell culture treated 96-well plates were allowed to thaw. On defrosting the cryopreservation medium was removed and the cells washed twice with PBS. […]
Typically for an assay performed in a 96-well cell culture treated plate 20,000 cells were used. […] The assay plates were incubated at room temperature for 4 hrs and the cAMP concentration determined by monitoring the generation of the luminescent signal using the LEADSEEKER™ Instrument platform.

C=C[C@@]1(C)CC(=O)[C@]2(O)[C@@]3(C)[C@@H](O)CCC(C)(C)[C@@H]3[C@H](O)[C@H](OC(C)=O)[C@@]2(C)O1 [forskolin, Forskolin] was tested, and the “S:B” value (minus poly lysine) was 2.5 and the “S:B” value (plus poly-lysine) was 3.0.

From patent publication US20110250632A1 (priority 2008, published 2011)
